Structures can show the parent of a compound that is named as a salt.
How the values were obtained:
[1] = target: T1, airway epithelial sodium currents (sodium channel) (UniProt A0A8I3MKE6+A0A8I3Q679+Q95165); assay: Sodium channel blocking activity: inhibition of short circuit current (ISC) in airway epithelial monolayers mounted in Ussing chambers; format: cell-based, human, dog, sheep or rodent; details: for Fold Amiloride** (PSA 4022 = 100): relative potency for PSA 4022 = 100 using EC50 from PSA 4022 in same run; for EC50: Selected Alaphatic Pyrazinoylguanidines (Formula II), mean ± spread, read-out: EC50
T1 sequence (A0A8I3MKE6 1-646): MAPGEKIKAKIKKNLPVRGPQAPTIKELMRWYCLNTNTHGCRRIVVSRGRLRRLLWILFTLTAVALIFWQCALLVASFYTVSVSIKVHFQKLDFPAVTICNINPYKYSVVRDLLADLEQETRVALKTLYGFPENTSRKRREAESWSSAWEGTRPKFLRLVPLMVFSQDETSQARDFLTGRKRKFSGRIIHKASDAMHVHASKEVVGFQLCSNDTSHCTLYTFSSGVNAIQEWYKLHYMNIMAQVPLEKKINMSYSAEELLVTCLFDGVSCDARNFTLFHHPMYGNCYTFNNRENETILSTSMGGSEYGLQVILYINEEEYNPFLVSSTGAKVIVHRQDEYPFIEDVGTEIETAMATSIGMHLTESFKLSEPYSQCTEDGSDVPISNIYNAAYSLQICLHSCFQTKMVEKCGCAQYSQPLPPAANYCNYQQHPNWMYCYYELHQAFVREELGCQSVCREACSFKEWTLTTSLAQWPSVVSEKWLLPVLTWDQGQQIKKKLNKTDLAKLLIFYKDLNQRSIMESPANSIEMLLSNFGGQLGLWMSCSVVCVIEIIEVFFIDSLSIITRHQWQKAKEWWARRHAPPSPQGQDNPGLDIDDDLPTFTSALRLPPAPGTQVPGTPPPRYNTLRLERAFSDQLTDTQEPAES
T1 sequence (A0A8I3Q679 1-649): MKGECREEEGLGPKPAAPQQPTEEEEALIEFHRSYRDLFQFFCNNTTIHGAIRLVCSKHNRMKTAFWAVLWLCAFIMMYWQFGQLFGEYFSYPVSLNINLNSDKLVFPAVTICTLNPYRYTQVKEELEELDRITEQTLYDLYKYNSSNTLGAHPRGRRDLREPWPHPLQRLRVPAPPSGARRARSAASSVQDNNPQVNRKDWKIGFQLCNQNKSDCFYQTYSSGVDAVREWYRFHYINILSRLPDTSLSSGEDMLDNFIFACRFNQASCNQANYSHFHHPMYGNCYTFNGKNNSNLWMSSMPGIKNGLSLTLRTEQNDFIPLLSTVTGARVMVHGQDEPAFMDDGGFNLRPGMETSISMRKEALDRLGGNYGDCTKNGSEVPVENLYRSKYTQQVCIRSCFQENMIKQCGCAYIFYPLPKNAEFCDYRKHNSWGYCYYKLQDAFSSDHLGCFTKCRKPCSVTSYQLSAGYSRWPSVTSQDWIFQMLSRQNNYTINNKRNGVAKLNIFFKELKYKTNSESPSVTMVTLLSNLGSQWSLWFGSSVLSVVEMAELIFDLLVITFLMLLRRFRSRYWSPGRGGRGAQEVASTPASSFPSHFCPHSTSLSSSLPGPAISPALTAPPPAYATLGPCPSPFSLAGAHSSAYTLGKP
T1 sequence (Q95165 1-641): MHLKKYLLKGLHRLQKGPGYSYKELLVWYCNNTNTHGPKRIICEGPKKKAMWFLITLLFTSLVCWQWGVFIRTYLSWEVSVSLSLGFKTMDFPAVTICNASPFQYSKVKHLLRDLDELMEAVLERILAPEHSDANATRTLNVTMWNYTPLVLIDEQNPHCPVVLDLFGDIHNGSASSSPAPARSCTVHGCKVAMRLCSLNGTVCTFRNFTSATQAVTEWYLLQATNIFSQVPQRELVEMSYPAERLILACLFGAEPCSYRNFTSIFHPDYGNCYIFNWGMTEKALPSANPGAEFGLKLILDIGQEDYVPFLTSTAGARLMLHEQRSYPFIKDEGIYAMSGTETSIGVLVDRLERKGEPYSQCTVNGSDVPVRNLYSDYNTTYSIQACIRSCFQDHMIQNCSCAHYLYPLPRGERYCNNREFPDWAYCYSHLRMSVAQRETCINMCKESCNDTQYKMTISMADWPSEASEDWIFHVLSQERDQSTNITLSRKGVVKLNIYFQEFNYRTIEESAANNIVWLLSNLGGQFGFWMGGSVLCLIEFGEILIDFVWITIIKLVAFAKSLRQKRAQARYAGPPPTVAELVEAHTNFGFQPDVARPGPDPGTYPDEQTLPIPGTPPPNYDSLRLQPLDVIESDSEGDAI
Experimental: In Vitro Measure of Sodium Channel Blocking Activity and Reversibility
One assay used to assess mechanism of action and/or potency of the compounds of the present invention involves the determination of lumenal drug inhibition of airway epithelial sodium currents measured under short circuit current (ISC) using airway epithelial monolayers mounted in Ussing chambers. Cells obtained from freshly excised human, dog, sheep or rodent airways are seeded onto porous 0.4 micron Snapwell™ Inserts (CoStar), cultured at air-liquid interface (ALI) conditions in hormonally defined media, and assayed for sodium transport activity (ISC) while bathed in Krebs Bicarbonate Ringer (KBR) in Using chambers. All test drug additions are to the lumenal bath with half-log dose addition protocols (from 1×10^−11 M to 3×10^−5 M), and the cumulative change in ISC (inhibition) recorded. All drugs are prepared in dimethyl sulfoxide as stock solutions at a concentration of 1×10^−2 M and stored at −20° C. Eight preparations are typically run in parallel; two preparations per run incorporate amiloride and/or benzamil as positive controls. After the maximal concentration (5×10^−5 M) is administered, the lumenal bath is exchanged three times with fresh drug-free KBR solution, and the resultant ISC measured after each wash for approximately 5 minutes in duration. Reversibility is defined as the percent return to the baseline value for sodium current after the third wash. All data from the voltage clamps are collected via a computer interface and analyzed off-line.
Dose-effect relationships for all compounds are considered and analyzed by the Prism 3.0 program. IC50 values, maximal effective concentrations, and reversibility are calculated and compared to amiloride and benzamil as positive controls.

| SMILES | Fold Amiloride** (PSA 4022 = 100) ([1]; Capped Pyrazinoylguanidines) | melting point | Fold Amiloride** (PSA 4022 = 100) ([1]; Alaphatic Pyrazinoylguanidines) | EC50 [1] [nM] |
| --- | --- | --- | --- | --- |
| N=C(NCCCCc1ccc(OCC(=O)Nc2ccccc2)cc1)NC(=O)c1nc(Cl)c(N)nc1N [compound 17482, 2-(4-{4-[N′-(3,5-diamino-6-chloropyrazine-2-carbonyl)guanidino]-butyl}phenoxy)-N-phenylacetamide] | 39 ± 6 | 168 to 170 °C |  |  |
| CC(C)(C)OC(=O)NCCCCCCCCCNC(=N)NC(=O)c1nc(Cl)c(N)nc1N [compound 19484, {9-[N′-(3,5-diamino-6-chloropyrazine-2-carbonyl)guanidino]nonyl}-carbamic acid tert-butyl ester] |  | 187 to 189 °C | 12 | 66 |
| N=C(NCCCCc1ccc(OCCCc2ncc[nH]2)cc1)NC(=O)c1nc(Cl)c(N)nc1N [compound 23022, N-(3,5-diamino-6-chloropyrazine-2-carbonyl)-N′-(4-{4-[3-(1H-imidazol-2-yl)propoxy]phenyl}butyl)guanidine] | 79 ± 15 | 123 to 126 °C (dec.) |  |  |
| N=C(NCCCCc1ccc(OCC(O)COCC(O)CO)cc1)NC(=O)c1nc(Cl)c(N)nc1N (stereo not drawn) [compound 15143, N-(3,5-diamino-6-chloropyrazine-2-carbonyl)-N′-(4-{4-[3-(2,3-dihydroxypropoxy)-2-hydroxypropoxy]phenyl}butyl)guanidine] | 107 ± 11 | 73 to 82 °C (dec.) |  |  |
| N=C(NCCCCC1CCN(CCO)CC1)NC(=O)c1nc(Cl)c(N)nc1N (as salt: hydrochloride) [compound 25193, N-(3,5-diamino-6-chloropyrazine-2-carbonyl)-N′-{4-[1-(2-hydroxyethyl)piperidin-4-yl]butyl}guanidine dihydrochloride] |  | 168 to 170 °C |  |  |
| Cl.N=C(NCCCCc1ccc(OCCCc2nnn[nH]2)cc1)NC(=O)c1nc(Cl)c(N)nc1N [compound 17926, N-(3,5-diamino-6-chloropyrazine-2-carbonyl)-N′-(4-{4-[3-(1H-tetrazol-5-yl)propoxy]phenyl}butyl)guanidine hydrochloride] | 29 ± 12 | 125 to 127 °C (dec.) |  |  |
| N=C(NCCCCc1ccc(OCC(=O)Nc2ncc[nH]2)cc1)NC(=O)c1nc(Cl)c(N)nc1N (as salt: hydrochloride) [compound 16437, 2-(4-{4-[N′-(3,5-diamino-6-chloropyrazine-2-carbonyl)guanidino]-butyl}phenoxy)-N-(1H-imidazol-2-yl)acetamide dihydrochloride] |  | 172 to 174 °C |  |  |
| CC(C)(C)OC(=O)NCCCOCCCNC(=N)NC(=O)c1nc(Cl)c(N)nc1N [compound 19333] |  | 62 to 65 °C (dec.) | 7 ± 2 | 81 ± 8 |
| N#CCOc1ccc(CCCCNC(=N)NC(=O)c2nc(Cl)c(N)nc2N)cc1 [compound 16208, N-[4-(4-cyanomethoxyphenyl)butyl]-N′-(3,5-diamino-6-chloro-pyrazine-2-carbonyl)guanidine] | 52 ± 21 | 129 to 132 °C |  |  |
| CC(C)(C)OC(=O)NCCCCCCCCNC(=N)NC(=O)c1nc(Cl)c(N)nc1N [compound 19156, {8-[N′-(3,5-diamino-6-chloropyrazine-2-carbonyl)guanidino]octyl}carbamic acid tert-butyl ester] |  | 189 to 191 °C | 18 ± 2 | 46 ± 20 |
| N=C(N)NCCCOCCCNC(=N)NC(=O)c1nc(Cl)c(N)nc1N (as salt: hydrochloride) |  | 72 to 75 °C (dec.) |  |  |
| N=C(NCCOCCOCCN)NC(=O)c1nc(Cl)c(N)nc1N |  | 87 to 90 °C |  |  |
| N=C(N)NCCOCCOCCNC(=N)NC(=O)c1nc(Cl)c(N)nc1N (as salt: hydrochloride) |  | 108 to 112 °C (dec.) |  |  |
| N=C(NCCCCCCCN)NC(=O)c1nc(Cl)c(N)nc1N [compound 18705, N-(7-aminoheptyl)-N′-(3,5-diamino-6-chloropyrazine-2-carbonyl)guanidine] |  | 185 to 187 °C (dec.) | 8 ± 2 | 99 ± 31 |
| CC(C)(C)OC(=O)NCCCCCCCCCCCCNC(=N)NC(=O)c1nc(Cl)c(N)nc1N [compound 23776, {12-[N′-(3,5-diamino-6-chloropyrazine-2-carbonyl)guanidino]dodecyl}-carbamic acid tert-butyl ester] |  | 154 to 156 °C | 7 | 75 |
| CN(C)C(=S)Oc1ccc(CCCCNC(=N)NC(=O)c2nc(Cl)c(N)nc2N)cc1 [compound 17846, dimethylthiocarbamic acid O-(4-{4-[N′-(3,5-diamino-6-chloropyrazine-2-carbonyl)guanidino]butyl}phenyl) ester] | 104 ± 49 | 102 to 105 °C |  |  |
| N=C(NCCCCCCCCCCCCN)NC(=O)c1nc(Cl)c(N)nc1N (as salt: hydrochloride) [compound 23609, N-(12-aminododecyl)-N′-(3,5-diamino-6-chloropyrazine-2-carbonyl)-guanidine dihydrochloride] |  | 235 to 237 °C |  |  |
| N=C(NCCCCCCCCCCN)NC(=O)c1nc(Cl)c(N)nc1N (as salt: hydrochloride) [compound 19487, N-(10-aminodecyl)-N′-(3,5-diamino-6-chloropyrazine-2-carbonyl)-guanidine dihydrochloride] |  | 168 to 170 °C |  |  |
| CC(C)[C@H](NS(=O)(=O)c1ccc(CCCCNC(=N)NC(=O)c2nc(Cl)c(N)nc2N)cc1)C(N)=O.Cl [compound 19008, (2S)-(4-{4-[N′-(3,5-diamino-6-chloropyrazine-2-carbonyl)guanidino]-butyl}benzenesulfonylamino)-3-methylbutyramide] | 54 ± 6 | 154 to 156 °C (dec.) |  |  |
